From publication PMC8880385 (Pharmaceuticals, 2022) come the findings set out here.

The nature of series [1]: Gerbil liver microsome stability assay. Type of series: in vitro ADME. As for the experimental part: Microsomal stability was tested using 1 µM of each test compound in a 96-well plate containing 0.5 mg/mL gerbil liver microsomes, 1 mM NADPH and/or UDPGA with alamethicin in a buffer of 100 mM potassium phosphate with 3 mM magnesium chloride at pH 7.4. Verapamil was used as a positive control. Reactions were incubated at 37 °C, and 100% acetonitrile with 0.1% formic acid was added at 0, 15, 30 and 60 min timepoints to stop the reaction. Samples were then separated over a Waters Atlantis T3 dC18 reverse phase HPLC column with 0.1% formic acid in water and 0.1% formic acid in acetonitrile. Samples were analyzed using an AB Sciex API 4000 LC–MS/MS.
Background: Microsomes from liver hold many membrane-bound enzymes, among them those of drug oxidation.

Series [2] relates to O. volvulus pre-adult L5. The experiment in a line: Ov L5 viability by endpoint MTT assay. The note with it: 1 µM. Type of series: cell-based, Onchocerca volvulus. As for the experimental part:
Briefly, Ov L3 larvae were cultured to the pre-adult/L5 stage in vitro as described by Voronin et al., 2019 [45]. Once larvae reached the L5 stage (after at least 70 days in culture), 8–10 Ov L5 were moved to new transwell inserts in a 24-well plate containing 0.5 mL Ov L4-CMS media seeded with a 3 × 10^4/well Human Umbilical Vein Endothelial Cells (HUVEC) monolayer. Duplicate wells were treated with 1 and/or 10 µM of compound. Ov L5 were exposed to compounds for 14 days (exchanged 50% of media with fresh compound every two days) and then cultured with new media without compound, exchanging 50% of media every 2–3 days, up to day 36. Control Ov L5 were treated with 0.05% DMSO. […] Motility was assessed visually and ranked on a 0–100% scale every 2–3 days over the course of the assay. At the end of the motility assay, Ov L5 viability was measured by 3-(4,5-dimethylthiazol-2-yl)-2,5-diphenyltetrazolium bromide (MTT) assay. Ov L5 were incubated with 0.1% MTT in PBS at 37 °C for 1 h then visually inspected for blue coloration indicating MTT reduction. Worms were considered dead if <50% of the worm was stained blue, and worms were considered alive if >50% of the worm was stained blue.

In series [3] the test system is Brugia pahangi female worms. The experiment in a line: Ex vivo microfilarial release and embryograms of female worms from treated gerbils. Type of series: in vivo. Particulars: females from gerbils treated IP 1 mg/kg. As for the experimental part: To test the effects of the compounds on female worm fertility, all surviving female worms were examined ex vivo to quantify the amount of mf released and profile the various stages of embryonic development within the uteri of individual female worms. After necropsy, female worms were incubated in individual wells of a 24-well plate with 2 mL Brugia culture media at 37 °C and 5% CO2. After 24 h, the number of mf released by each adult female was determined by counting the mf in a 0.5 mL sample of the media and multiplying by 4 to calculate the total number of mf. Additionally, embryogram analyses on the individual female worms was performed as described. […] The embryonic developmental stages (eggs, embryos, pre-mf and mf) were determined in two 10 μL aliquots using a compound microscope and hemocytometer. A minimum of 200 events were assessed from each female worm and at least 3 females were analyzed per animal from at least 3 animals per treatment group. The intra-uterine embryogram was expressed as the relative proportions of different stages of development: eggs, embryos, pre-mf, stretched mf and deformed embryos in the total number of events.
Worm burden, peritoneal mf counts, overnight mf sheds and qPCR data were analyzed using a Kruskal–Wallis test followed by Dunn’s multiple comparison. […] All statistical analyses were determined using Prism 8 version 8.2.0(272).

Series [4] deals with O. volvulus third-stage larvae (L3). The experiment in a line: O. volvulus L3 to L4 molting assay. Format: cell-based, Onchocerca volvulus. Particulars: Day 6, read-out: O. volvulus L3 Inhibition of Molting Day 6 IC50. As for the experimental part:
O. volvulus, like other nematodes, undergo molts during their larval stages as they develop into the adult form. […] The molting assay tests the potency of compounds to prevent the L3 from molting to the L4 stage in vitro. […] Briefly, 5–10 Ov L3 collected from infected Simulium blackflies and frozen in liquid nitrogen were thawed and plated in 96-well plates seeded with 0.2 × 10^6 normal human peripheral blood mononuclear cells (PBMCs) in 100 µL complete medium containing 20% heat inactivated FBS and treated with compounds at 10, 3, 1, 0.3, 0.1 and 0.03 μM. L3 exposed to 0.5% DMSO or complete media only were run as negative controls. Larvae were incubated at 37 °C with 5% CO2, and molting was determined by examining the wells for highly motile L4 larvae and empty L3 casts after 6 days in culture.

The test system of series [5] is O. volvulus pre-adult L5. The experiment in a line: O. volvulus pre-adult (Ov L5) motility assay. Format: cell-based, Onchocerca volvulus. The note with it: Onchocerca volvulus, Day 36 @ 1 µM; 14 days drug then washout. As for the experimental part: O. volvulus adult male and female worms, which can only be obtained from infected individuals, are not readily accessible for ex vivo studies. Moreover, since there is no small animal model that can maintain infections by O. volvulus, a recently developed in vitro system was used to evaluate the macrofilaricidal effects on pre-adult worms. All compounds except for 04 were tested in this O. volvulus pre-adult/L5 motility and viability assay.
Briefly, Ov L3 larvae were cultured to the pre-adult/L5 stage in vitro as described by Voronin et al., 2019 [45]. Once larvae reached the L5 stage (after at least 70 days in culture), 8–10 Ov L5 were moved to new transwell inserts in a 24-well plate containing 0.5 mL Ov L4-CMS media seeded with a 3 × 10^4/well Human Umbilical Vein Endothelial Cells (HUVEC) monolayer. Duplicate wells were treated with 1 and/or 10 µM of compound. Ov L5 were exposed to compounds for 14 days (exchanged 50% of media with fresh compound every two days) and then cultured with new media without compound, exchanging 50% of media every 2–3 days, up to day 36. Control Ov L5 were treated with 0.05% DMSO. Concentrations were chosen based on activity in the B. pahangi female motility assay. Motility was assessed visually and ranked on a 0–100% scale every 2–3 days over the course of the assay. At the end of the motility assay, Ov L5 viability was measured by 3-(4,5-dimethylthiazol-2-yl)-2,5-diphenyltetrazolium bromide (MTT) assay. Ov L5 were incubated with 0.1% MTT in PBS at 37 °C for 1 h then visually inspected for blue coloration indicating MTT reduction. Worms were considered dead if <50% of the worm was stained blue, and worms were considered alive if >50% of the worm was stained blue.

The subject of series [6] is O. volvulus pre-adult L5. The experiment in a line: O. volvulus pre-adult (Ov L5) motility assay. Particulars: Onchocerca volvulus, 504 h; on Day 21; read-out: O. volvulus L5 Inhibition of Motility IC50. Type of series: cell-based.

“Also recorded” adds a separate entry of the source. Like-named read-outs stand apart in the source and are kept apart here.

Broadly, the IC50 is the point on the concentration scale where inhibition reaches its midpoint. Usually inhibition stands for the relative decrease from the control value, in per cent. Read a high inhibition as strong suppression. In series [1] (gerbil liver microsomes), `Cc1ccc2c(ccc(/C=C/c3c(C)nn(-c4ccccc4)c3C)[n+]2C)c1.[I-]` [Analog 06, 2-[(E)-2-(3,5-dimethyl-1-phenyl-1H-pyrazol-4-yl)ethenyl]-1,6-dimethylquinolin-1-ium iodide] came in with a CLint of 0.933 µL/min/mg Protein. Besides, the half-life at 1 µM in series [1] (pH 7.4, 1 µM compound, 0.5 mg/mL microsomes, read-out: Gerbil Liver Microsome T1/2) worked out at 24.7 h. In addition, in series [2], the “O. volvulus L5 % inhibition of viability Day 37 (MTT assay)” value was determined as 88%. Also, the “Deformed embryos in gonads of female worms (embryogram) vs vehicle” value in series [3] is recorded as “statistically significant increase in the number of deformed embryos”. For the same compound, in series [3], the “Mf released by female worms after 24 h ex vivo (overnight shed) vs vehicle” value was “significantly lower numbers of mf; also recorded: significantly reduced”. For the same compound, the IC50 in series [4] stood at 460 nM; in series [4] (Onchocerca volvulus, 144 h), 458 nM; in series [6] it was 220 nM. The compound also showed an inhibition at 1 µM in series [5] of over 90%.
